*1 amine or outer side, *2 acyl side, *3 side chain or, on linkers, in order; H or OH if unused. Where a SMILES comes first, the peptide text is derived from it. Side-chain parts run from the residue outwards. [ ]: non-standard residue; d: D form. The star is where a group is joined. C20 diacid = O=C(O)CCCCCCCCCCCCCCCCCCC(=O)*; γGlu = O=C(O)[C@H](CCC(=O)[*:2])N[*:1]; αMeF = C[C@](N)(Cc1ccccc1)C(=O)O; 4Pal = N[C@@H](Cc1ccncc1)C(=O)O; αMeL = CC(C)C[C@](C)(N)C(=O)O; AEEA = NCCOCCOCC(=O)O; Aib = CC(C)(N)C(=O)O
Key:
Test in all cases: cAMP functional assay (HTRF) in HEK293 cells in presence of 0.1% casein
Format in all cases: cell-based
[1] = molecular target: T1, human GLP-1 receptor (GLP-1R) (Homo sapiens, UniProt P43220); details: HEK293 cells expressing human GLP-1R, geometric mean, read-out: hGLP1R cAMP Rel EC50 nM (SEM, n)
T1 construct: expressed in transfected cells; host or cells: HEK293

[2] = molecular target: T2, human glucose-dependent insulinotropic peptide receptor (GIPR) (Homo sapiens, UniProt P48546); details: HEK293 cells expressing human GIPR, geometric mean, read-out: hGIPR cAMP Rel EC50 nM (SEM, n)
T2 construct: expressed in transfected cells; host or cells: HEK293
T2 sequence (P48546 22-466): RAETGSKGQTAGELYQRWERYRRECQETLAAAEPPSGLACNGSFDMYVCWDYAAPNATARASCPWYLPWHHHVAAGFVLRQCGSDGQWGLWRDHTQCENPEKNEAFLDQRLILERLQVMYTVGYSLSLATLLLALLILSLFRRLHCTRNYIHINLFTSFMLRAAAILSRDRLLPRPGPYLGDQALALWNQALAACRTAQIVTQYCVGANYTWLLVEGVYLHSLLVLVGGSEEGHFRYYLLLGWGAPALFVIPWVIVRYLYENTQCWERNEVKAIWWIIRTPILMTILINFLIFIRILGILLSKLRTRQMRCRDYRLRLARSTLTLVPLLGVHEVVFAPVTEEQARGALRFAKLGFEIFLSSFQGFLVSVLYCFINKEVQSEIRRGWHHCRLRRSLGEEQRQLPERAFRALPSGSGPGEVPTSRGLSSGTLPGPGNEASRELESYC

[3] = molecular target: T3, human glucagon receptor (GcgR) (Homo sapiens, UniProt P47871); details: HEK293 cells expressing human GcgR, geometric mean, read-out: hGcgR cAMP Rel EC50 nM (SEM, n)
T3 construct: expressed in transfected cells; host or cells: HEK293
T3 sequence (P47871 26-477): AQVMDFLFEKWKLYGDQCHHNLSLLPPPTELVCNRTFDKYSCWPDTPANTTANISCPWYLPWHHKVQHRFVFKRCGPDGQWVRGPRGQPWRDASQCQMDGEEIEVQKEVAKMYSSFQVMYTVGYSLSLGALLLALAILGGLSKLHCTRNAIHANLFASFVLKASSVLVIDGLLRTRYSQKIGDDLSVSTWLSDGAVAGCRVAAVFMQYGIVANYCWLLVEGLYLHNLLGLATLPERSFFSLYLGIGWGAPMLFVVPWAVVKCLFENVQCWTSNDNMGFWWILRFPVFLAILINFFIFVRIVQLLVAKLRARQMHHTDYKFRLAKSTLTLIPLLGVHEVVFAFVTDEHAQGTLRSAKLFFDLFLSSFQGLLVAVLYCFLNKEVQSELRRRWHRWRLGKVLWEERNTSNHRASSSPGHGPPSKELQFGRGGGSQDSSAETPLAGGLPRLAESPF

T1 sequence (P43220 24-463): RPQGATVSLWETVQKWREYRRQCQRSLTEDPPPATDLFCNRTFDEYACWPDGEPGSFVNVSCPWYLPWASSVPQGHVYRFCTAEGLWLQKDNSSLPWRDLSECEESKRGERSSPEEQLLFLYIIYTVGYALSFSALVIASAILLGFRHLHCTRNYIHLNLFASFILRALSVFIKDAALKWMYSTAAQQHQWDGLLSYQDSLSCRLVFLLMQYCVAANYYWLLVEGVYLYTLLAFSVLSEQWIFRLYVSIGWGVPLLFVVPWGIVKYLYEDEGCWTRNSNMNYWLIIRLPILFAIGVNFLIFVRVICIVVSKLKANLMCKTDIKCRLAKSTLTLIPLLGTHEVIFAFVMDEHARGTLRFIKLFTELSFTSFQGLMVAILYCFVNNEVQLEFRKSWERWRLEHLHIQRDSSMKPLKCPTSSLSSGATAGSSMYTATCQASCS

Compound	EC50 [1]	EC50 [2]	EC50 [3]
CC[C@H](C)[C@H](NC(=O)[C@H](Cc1ccccc1)NC(=O)[C@@H](NC(=O)CNC(=O)[C@H](CCC(=O)O)NC(=O)C(C)(C)NC(=O)[C@@H](N)Cc1ccc(O)cc1)[C@@H](C)O)C(=O)N[C@@H](CO)C(=O)N[C@@H](CC(=O)O)C(=O)N[C@@H](Cc1ccc(O)cc1)C(=O)N[C@@H](CO)C(=O)N[C@H](C(=O)N[C@@](C)(CC(C)C)C(=O)N[C@@H](CC(C)C)C(=O)N[C@@H](CC(=O)O)C(=O)N[C@@H](CCCCN)C(=O)N[C@@H](CCCCNC(=O)COCCOCCNC(=O)COCCOCCNC(=O)CC[C@H](NC(=O)CCCCCCCCCCCCCCCCCCC(=O)O)C(=O)O)C(=O)N[C@@H](Cc1c[nH]cn1)C(=O)N[C@@H](CCC(N)=O)C(=O)NC(C)(C)C(=O)N[C@@H](CCC(=O)O)C(=O)N[C@@H](Cc1ccccc1)C(=O)N[C@H](C(=O)N[C@@H](CCC(=O)O)C(=O)N[C@@H](Cc1ccncc1)C(=O)N[C@@H](CC(C)C)C(=O)N[C@@H](CC(C)C)C(=O)N[C@@H](C)C(=O)N[C@@H](C)C(=O)NCC(=O)N1CCC[C@H]1C(=O)N[C@@H](CO)C(=O)N[C@@H](CO)C(=O)NCC(=O)N[C@@H](C)C(=O)N1CCC[C@H]1C(=O)N1CCC[C@H]1C(=O)N1CCC[C@H]1C(=O)N[C@@H](CO)C(N)=O)C(C)C)[C@@H](C)CC [Example 59]	> 5000 nM	0.0202 nM	> 5000 nM
CC[C@H](C)[C@H](NC(=O)[C@H](Cc1ccccc1)NC(=O)[C@@H](NC(=O)CNC(=O)[C@H](CCC(=O)O)NC(=O)C(C)(C)NC(=O)[C@@H](N)Cc1ccc(O)cc1)[C@@H](C)O)C(=O)N[C@@H](CO)C(=O)N[C@@H](CC(=O)O)C(=O)N[C@@H](Cc1ccc(O)cc1)C(=O)N[C@@H](CO)C(=O)N[C@H](C(=O)N[C@@](C)(CC(C)C)C(=O)N[C@@H](CC(C)C)C(=O)N[C@@H](CC(=O)O)C(=O)N[C@@H](CCCCN)C(=O)N[C@@H](CCCCNC(=O)COCCOCCNC(=O)COCCOCCNC(=O)CC[C@H](NC(=O)CCCCCCCCCCCCCCCCCCC(=O)O)C(=O)O)C(=O)N[C@@H](Cc1c[nH]cn1)C(=O)N[C@@H](CCC(N)=O)C(=O)NC(C)(C)C(=O)N[C@@H](CC(=O)O)C(=O)N[C@@H](Cc1ccccc1)C(=O)N[C@H](C(=O)N[C@@H](CCC(=O)O)C(=O)N[C@@H](Cc1ccc(O)cc1)C(=O)N[C@@H](CC(C)C)C(=O)N[C@@H](CC(C)C)C(=O)N[C@@H](C)C(=O)NCC(=O)NCC(=O)N1CCC[C@H]1C(=O)N[C@@H](CO)C(=O)N[C@@H](CO)C(=O)NCC(=O)N[C@@H](C)C(=O)N1CCC[C@H]1C(=O)N1CCC[C@H]1C(=O)N1CCC[C@H]1C(=O)N[C@@H](CO)C(N)=O)C(C)C)[C@@H](C)CC [Example 53] (H-Y[Aib]EGTFISDYSI[αMeL]LDKK([AEEA-AEEA-γGlu-C20 diacid])HQ[Aib]DFVEYLLAGGPSSGAPPPS-NH2)	> 5000 nM	0.0194 nM	344 nM
CC[C@H](C)[C@H](NC(=O)[C@H](Cc1ccccc1)NC(=O)[C@@H](NC(=O)CNC(=O)[C@H](CCC(=O)O)NC(=O)C(C)(C)NC(=O)[C@@H](N)Cc1ccc(O)cc1)[C@@H](C)O)C(=O)N[C@@H](CO)C(=O)N[C@@H](CC(=O)O)C(=O)N[C@@H](Cc1ccc(O)cc1)C(=O)N[C@@H](CO)C(=O)N[C@H](C(=O)N[C@@](C)(CC(C)C)C(=O)N[C@@H](CC(C)C)C(=O)N[C@@H](CC(=O)O)C(=O)N[C@@H](CCCCN)C(=O)N[C@@H](CCCCNC(=O)COCCOCCNC(=O)COCCOCCNC(=O)CC[C@H](NC(=O)CCCCCCCCCCCCCCCCCCC(=O)O)C(=O)O)C(=O)N[C@@H](Cc1c[nH]cn1)C(=O)N[C@@H](CCC(N)=O)C(=O)NC(C)(C)C(=O)N[C@@H](CC(=O)O)C(=O)N[C@@H](Cc1ccccc1)C(=O)N[C@H](C(=O)N[C@@H](CCC(=O)O)C(=O)N[C@@H](Cc1ccncc1)C(=O)N[C@@H](CC(C)C)C(=O)N[C@@H](CC(C)C)C(=O)N[C@@H](C)C(=O)N[C@H](C(=O)NCC(=O)N1CCC[C@H]1C(=O)N[C@@H](CO)C(=O)N[C@@H](CO)C(=O)NCC(=O)N[C@@H](C)C(=O)N1CCC[C@H]1C(=O)N1CCC[C@H]1C(=O)N1CCC[C@H]1C(=O)N[C@@H](CO)C(N)=O)[C@@H](C)O)C(C)C)[C@@H](C)CC [Example 70] (H-Y[Aib]EGTFISDYSI[αMeL]LDKK([AEEA-AEEA-γGlu-C20 diacid])HQ[Aib]DFVE[4Pal]LLATGPSSGAPPPS-NH2)	> 5000 nM	0.0254 nM	3560 nM
CC[C@H](C)[C@H](NC(=O)[C@H](Cc1ccccc1)NC(=O)[C@@H](NC(=O)CNC(=O)[C@H](CCC(=O)O)NC(=O)C(C)(C)NC(=O)[C@@H](N)Cc1ccc(O)cc1)[C@@H](C)O)C(=O)N[C@@H](CO)C(=O)N[C@@H](CC(=O)O)C(=O)N[C@@H](Cc1ccc(O)cc1)C(=O)N[C@@H](CO)C(=O)N[C@H](C(=O)N[C@@](C)(CC(C)C)C(=O)N[C@@H](CC(C)C)C(=O)N[C@@H](CC(=O)O)C(=O)N[C@@H](CCCCN)C(=O)N[C@@H](CCCCNC(=O)COCCOCCNC(=O)COCCOCCNC(=O)CC[C@H](NC(=O)CCCCCCCCCCCCCCCCCCC(=O)O)C(=O)O)C(=O)N[C@@H](Cc1c[nH]cn1)C(=O)N[C@@H](CCC(N)=O)C(=O)NC(C)(C)C(=O)N[C@@H](CC(=O)O)C(=O)N[C@@H](Cc1ccccc1)C(=O)N[C@H](C(=O)N[C@@H](CCC(=O)O)C(=O)N[C@@H](Cc1ccc(O)cc1)C(=O)N[C@@H](CC(C)C)C(=O)N[C@@H](CC(C)C)C(=O)N[C@@H](CCC(=O)O)C(=O)NCC(=O)NCC(=O)N1CCC[C@H]1C(=O)N[C@@H](CO)C(=O)N[C@@H](CO)C(=O)NCC(=O)N[C@@H](C)C(=O)N1CCC[C@H]1C(=O)N1CCC[C@H]1C(=O)N1CCC[C@H]1C(=O)N[C@@H](CO)C(N)=O)C(C)C)[C@@H](C)CC [Example 69] (H-Y[Aib]EGTFISDYSI[αMeL]LDKK([AEEA-AEEA-γGlu-C20 diacid])HQ[Aib]DFVEYLLEGGPSSGAPPPS-NH2)	> 5000 nM	0.0302 nM	803 nM
CC[C@H](C)[C@H](NC(=O)[C@H](CO)NC(=O)[C@H](Cc1ccc(O)cc1)NC(=O)[C@H](CC(=O)O)NC(=O)[C@H](CO)NC(=O)[C@@H](NC(=O)[C@](C)(Cc1ccccc1)NC(=O)[C@@H](NC(=O)CNC(=O)[C@H](CCC(=O)O)NC(=O)C(C)(C)NC(=O)[C@@H](N)Cc1ccc(O)cc1)[C@@H](C)O)[C@@H](C)CC)C(=O)N[C@@](C)(CC(C)C)C(=O)N[C@@H](CC(C)C)C(=O)N[C@@H](CC(=O)O)C(=O)N[C@@H](CCCCN)C(=O)N[C@@H](CCCCNC(=O)COCCOCCNC(=O)COCCOCCNC(=O)CC[C@H](NC(=O)CCCCCCCCCCCCCCCCCCC(=O)O)C(=O)O)C(=O)N[C@@H](Cc1c[nH]cn1)C(=O)N[C@@H](CCC(N)=O)C(=O)NC(C)(C)C(=O)N[C@@H](CC(=O)O)C(=O)N[C@@H](Cc1ccccc1)C(=O)N[C@H](C(=O)N[C@@H](CCC(=O)O)C(=O)N[C@@H](Cc1ccncc1)C(=O)N[C@@H](CC(C)C)C(=O)N[C@@H](CC(C)C)C(=O)N[C@@H](C)C(=O)NCC(=O)NCC(=O)N1CCC[C@H]1C(=O)N[C@@H](CO)C(=O)N[C@@H](CO)C(=O)NCC(=O)N[C@@H](C)C(=O)N1CCC[C@H]1C(=O)N1CCC[C@H]1C(=O)N1CCC[C@H]1C(=O)N[C@@H](CO)C(N)=O)C(C)C [Example 50] (H-Y[Aib]EGT[αMeF]ISDYSI[αMeL]LDKK([AEEA-AEEA-γGlu-C20 diacid])HQ[Aib]DFVE[4Pal]LLAGGPSSGAPPPS-NH2)	41 nM	0.0212 nM	371 nM

Source: patent US12723063B2, “GIPR-agonist compounds” (Eli Lilly and Company, priority 2019, dated 2026)
